Patent publication US9890133B2 (priority 2011, dated 2018)
Values after ≈ are worked out from the molar mass of the structure shown.

Assays:
Poliovirus 3 = test: microbe, parasite or virus in culture; assay type: cell-based; settings: Enterovirus C, read-out: Poliovirus3 EC50
in vitro = settings: human

SMILES | EC50 (Poliovirus 3) [µg/mL] | CC50 (in vitro) [µg/mL] | CC50 (in vitro; Picorana CC50) [µg/mL]
CCCCC(=O)NC12C(=O)c3c(N)cccc3C1(OC(=O)CCCC)Oc1cc(C(C)C)ccc12 (stereo not drawn) [Example 96, 1-Amino-7-isopropyl-10-oxo-9b-pentanamido-9b,10-dihydro-4bH-benzo[d]indeno[1,2-b]furan-4b-yl pentanoate] | 0.016 (≈ 0.0334 µM) | 24 (≈ 50.1 µM) | > 50
COC(=O)OC12Oc3cc(C(C)C)ccc3C1(NC(C)=O)C(=O)c1c(N)cccc12 (stereo not drawn) [Example 113, 9b-acetamido-1-amino-7-isopropyl-10-oxo-9b,10-dihydro-4bH-indeno[1,2-b]benzofuran-4b-yl methyl carbonate] | < 0.01 | 48.8 (≈ 119 µM) | 45.5 (≈ 111 µM)
CC(C)c1ccc2c(c1)OC1(O)c3cccc(N)c3C(=O)C21NC(=O)C(C)(C)C (stereo not drawn) [Example 114, N-(1-Amino-4b-hydroxy-7-isopropyl-10-oxo-9b,10-dihydro-4bH-benzo[d]indeno[1,2-b]furan-9b-yl)pivalamide] | 0.034 (≈ 0.0862 µM) | 43.1 (≈ 109 µM) | 45.9 (≈ 116 µM)
CCCCOC(=O)OC12Oc3cc(C(C)C)ccc3C1(NC(C)=O)C(=O)c1c(N)cccc12 (stereo not drawn) [Example 115, 9b-Acetamido-1-amino-7-isopropyl-10-oxo-9b,10-dihydro-4bH-benzo[d]indeno[1,2-b]furan-4b-yl butyl carbonate] | < 0.01 | 23.1 (≈ 51.1 µM) | 42.8 (≈ 94.6 µM)
CCOC(=O)OC12Oc3cc(C(C)C)ccc3C1(NC(C)=O)C(=O)c1c(N)cccc12 (stereo not drawn) [Example 123, 9b-Acetamido-1-amino-7-isopropyl-10-oxo-9b,10-dihydro-4bH-benzo[d]indeno[1,2-b]furan-4b-yl ethyl carbonate] | < 0.01 | 43.4 (≈ 102 µM) | 37.5 (≈ 88.4 µM)
CCC(=O)NC12C(=O)c3c(N)cccc3C1(O)Oc1cc(C(C)C)ccc12 (stereo not drawn) [Example 143, N-(1-Amino-4b-hydroxy-7-isopropyl-10-oxo-9b,10-dihydro-4bH-indeno[1,2-b]benzofuran-9b-yl)propionamide] | < 0.01 | 58.1 (≈ 158 µM) | > 50
CCCC(=O)NC12C(=O)c3c(N)cccc3C1(O)Oc1cc(C(C)C)ccc12 (stereo not drawn) [Example 144, N-(1-Amino-4b-hydroxy-7-isopropyl-10-oxo-9b,10-dihydro-4bH-indeno[1,2-b]benzofuran-9b-yl) butyramide] | < 0.01 | 21.7 (≈ 57.1 µM) | 35.5 (≈ 93.3 µM)
CC(C)c1ccc2c(c1)OC1(O)c3cccc(N)c3C(=O)C21NC(=O)c1ccccc1 (stereo not drawn) [Example 153, N-(1-Amino-4b-hydroxy-7-isopropyl-10-oxo-9b,10-dihydro-4bH-indeno[1,2-b]benzofuran-9b-yl)benzamide] | < 0.01 | 16 (≈ 38.7 µM) | 9.02 (≈ 21.8 µM)
COc1cccc(C(=O)NC23C(=O)c4c(N)cccc4C2(O)Oc2cc(C(C)C)ccc23)c1 (stereo not drawn) [Example 154, N-(1-Amino-4b-hydroxy-7-isopropyl-10-oxo-9b,10-dihydro-4bH-indeno[1,2-b]benzofuran-9b-yl)-3-methoxybenzamide] | < 0.01 | 22.7 (≈ 51.1 µM) | 46.2 (≈ 104 µM)
CC(C)c1ccc2c(c1)OC1(O)c3cccc(N)c3C(=O)C21NC(=O)c1ccc(Cl)cc1 (stereo not drawn) [Example 155, N-(1-Amino-4b-hydroxy-7-isopropyl-10-oxo-9b,10-dihydro-4bH-indeno[1,2-b]benzofuran-9b-yl)-4-chlorobenzamide] | < 0.01 | 7.81 (≈ 17.4 µM) | 9.02 (≈ 20.1 µM)
CC(C)c1ccc2c(c1)OC1(O)c3cccc(N)c3C(=O)C21NC(=O)C1CC1 (stereo not drawn) [Example 158, N-(1-Amino-4b-hydroxy-7-isopropyl-10-oxo-9b,10-dihydro-4bH-indeno[1,2-b]benzofuran-9b-yl)cyclopropanecarboxamide] | < 0.01 | 39.4 (≈ 104 µM) | 44.7 (≈ 118 µM)
CC(C)c1ccc2c(c1)OC1(O)c3ccccc3C(=O)C21NC(=O)c1cccs1 (stereo not drawn) [Example 161, N-(4b-Hydroxy-7-isopropyl-10-oxo-9b,10-dihydro-4bH-indeno[1,2-b]benzofuran-9b-yl)thiophene-2-carboxamide] | < 0.01 | 17.9 (≈ 44.1 µM) | 40.7 (≈ 100 µM)
CC(C)c1ccc2c(c1)OC1(O)c3cccc(N)c3C(=O)C21NC=O (stereo not drawn) [Example 166, N-(1-Amino-4b-hydroxy-7-isopropyl-10-oxo-9b,10-dihydro-4bH-indeno[1,2-b]benzofuran-9b-yl)formamide] | < 0.01 | > 10 | –
CC(C)c1ccc2c(c1)OC1(O)c3cccc(N)c3C(=O)C21NC(=O)c1ccc(C#N)cc1 (stereo not drawn) [Example 170, N-(1-Amino-4b-hydroxy-7-isopropyl-10-oxo-9b,10-dihydro-4bH-indeno[1,2-b]benzofuran-9b-yl)-4-cyanobenzamide] | < 0.01 | > 10 | –
CC(C)c1ccc2c(c1)OC1(O)c3cccc(N)c3C(=O)C21NC(=O)c1ccc2ccccc2c1 (stereo not drawn) [Example 171, N-(1-Amino-4b-hydroxy-7-isopropyl-10-oxo-9b,10-dihydro-4bH-indeno[1,2-b]benzofuran-9b-yl)-2-naphthamide] | 0.03 (≈ 0.0646 µM) | > 10 | –
CC(C)c1ccc2c(c1)OC1(O)c3cccc(N)c3C(=O)C21NC(=O)C1CCCO1 (stereo not drawn) [Example 174, N-(1-Amino-4b-hydroxy-7-isopropyl-10-oxo-9b,10-dihydro-4bH-benzo[d]indeno[1,2-b]furan-9b-yl)tetrahydrofurane-2-carboxamide] | 0.019 (≈ 0.0465 µM) | > 10 | –
CC(C)c1ccc2c(c1)OC1(O)c3cccc(N)c3C(=O)C21NC(=O)C(F)(F)F (stereo not drawn) [Example 175, N-(1-Amino-4b-hydroxy-7-isopropyl-10-oxo-9b,10-dihydro-4bH-indeno[1,2-b]benzofuran-9b-yl)-2,2,2-trifluoroacetamide] | < 0.01 | > 10 | > 11
CC(C)c1ccc2c(c1)OC1(O)c3cccc(N)c3C(=O)C21NC(=O)Cc1ccccc1 (stereo not drawn) [Example 179, N-(1-Amino-4b-hydroxy-7-isopropyl-10-oxo-9b,10-dihydro-4bH-indeno[1,2-b]benzofuran-9b-yl)-2-phenylacetamide] | < 0.01 | > 10 | –
CC(C)c1ccc2c(c1)OC1(O)c3cccc(N)c3C(=O)C21NC(=O)/C=C/c1ccc(Cl)c(Cl)c1 (stereo not drawn) [Example 180] | 0.033 (≈ 0.0648 µM) | > 10 | 4.32 (≈ 8.48 µM)
CC(C)c1ccc2c(c1)OC1(O)c3cccc(N)c3C(=O)C21NC(=O)c1ccc(OCc2ccccc2)cc1 (stereo not drawn) [Example 181, N-(1-Amino-4b-hydroxy-7-isopropyl-10-oxo-9b,10-dihydro-4bH-indeno[1,2-b]benzofuran-9b-yl)-4-(benzyloxy)benzamide] | 0.036 (≈ 0.0692 µM) | > 10 | –
COc1ccccc1C(=O)NC12C(=O)c3c(N)cccc3C1(O)Oc1cc(C(C)C)ccc12 (stereo not drawn) [Example 183, N-(1-Amino-4b-hydroxy-7-isopropyl-10-oxo-9b,10-dihydro-4bH-indeno[1,2-b]benzofuran-9b-yl)-2-methoxybenzamide] | 0.014 (≈ 0.0315 µM) | > 10 | 8.54 (≈ 19.2 µM)
Cc1ccccc1C(=O)NC12C(=O)c3c(N)cccc3C1(O)Oc1cc(C(C)C)ccc12 (stereo not drawn) [Example 186, N-(1-Amino-4b-hydroxy-7-isopropyl-10-oxo-9b,10-dihydro-4bH-benzo[d]indeno[1,2-b]furan-9b-yl)-2-methylbenzamide] | 0.026 (≈ 0.0607 µM) | > 10 | 8.31 (≈ 19.4 µM)
Cc1cccc(C(=O)NC23C(=O)c4c(N)cccc4C2(O)Oc2cc(C(C)C)ccc23)c1 (stereo not drawn) [Example 187, N-(1-Amino-4b-hydroxy-7-isopropyl-10-oxo-9b,10-dihydro-4bH-benzo[d]indeno[1,2-b]furan-9b-yl)-3-methylbenzamide] | < 0.01 | > 10 | 7.43 (≈ 17.3 µM)
Cc1ccc(C(=O)NC23C(=O)c4c(N)cccc4C2(O)Oc2cc(C(C)C)ccc23)cc1 (stereo not drawn) [Example 188, N-(1-Amino-4b-hydroxy-7-isopropyl-10-oxo-9b,10-dihydro-4bH-benzo[d]indeno[1,2-b]furan-9b-yl)-4-methylbenzamide] | < 0.01 | > 10 | 8.38 (≈ 19.6 µM)
CC(C)c1ccc2c(c1)OC1(O)c3cccc(N)c3C(=O)C21NC(=O)c1ccc2nccnc2c1 (stereo not drawn) [Example 277, N-(1-Amino-4b-hydroxy-7-isopropyl-10-oxo-9b,10-dihydro-4bH-indeno[1,2-b]benzofuran-9b-yl)quinoxaline-6-carboxamide] | – | > 10 | –
Cc1ccn2cc(C(=O)NC34C(=O)c5c(N)cccc5C3(O)Oc3cc(C(C)C)ccc34)nc2c1 (stereo not drawn) [Example 280, N-(1-Amino-4b-hydroxy-7-isopropyl-10-oxo-9b,10-dihydro-4bH-indeno[1,2-b]benzofuran-9b-yl)-7-methylimidazo[1,2-a]pyridine-2-carboxamide] | – | > 10 | –
Cc1cc(C)n2ncc(C(=O)NC34C(=O)c5c(N)cccc5C3(O)Oc3cc(C(C)C)ccc34)c2n1 (stereo not drawn) [Example 282, N-(1-Amino-4b-hydroxy-7-isopropyl-10-oxo-9b,10-dihydro-4bH-indeno[1,2-b]benzofuran-9b-yl)-5,7-dimethylpyrazolo[1,5-a]pyrimidine-3-carboxamide] | – | > 10 | 6.78 (≈ 14 µM)
CC(C)c1ccc2c(c1)OC1(O)c3cccc(N)c3C(=O)C21NC(=O)c1cc2ccccn2c1 (stereo not drawn) [Example 283, N-(1-Amino-4b-hydroxy-7-isopropyl-10-oxo-9b,10-dihydro-4bH-indeno[1,2-b]benzofuran-9b-yl) indolizine-2-carboxamide] | – | > 10 | 5.47 (≈ 12.1 µM)
CC(C)c1ccc2c(c1)OC1(O)c3cccc(N)c3C(=O)C21NC(=O)c1cc(C(C)C)nc2c1cnn2C(C)C (stereo not drawn) [Example 284, N-(1-Amino-4b-hydroxy-7-isopropyl-10-oxo-9b,10-dihydro-4bH-indeno[1,2-b]benzofuran-9b-yl)-1,6-diisopropyl-1H-pyrazolo[3,4-b]pyridine-4-carboxamide] | – | 3.71 (≈ 6.88 µM) | 4.56 (≈ 8.45 µM)
Cc1c(C(=O)NC23C(=O)c4c(N)cccc4C2(O)Oc2cc(C(C)C)ccc23)cnc2ccnn12 (stereo not drawn) [Example 289, N-(1-Amino-4b-hydroxy-7-isopropyl-10-oxo-9b,10-dihydro-4bH-indeno[1,2-b]benzofuran-9b-yl)-7-methylpyrazolo[1,5-a]pyrimidine-6-carboxamide] | – | > 10 | –
